This is an account of results in publication PMC11505038, “Kalata B1 Enhances Temozolomide Toxicity to Glioblastoma Cells” (Biomedicines, 2024).

Where a SMILES comes first, the peptide text is derived from it. Bridges are numbered along the chain shown (N, C = ends).

For data set [1] the following is noted: cited from earlier work. The text has this: One of our objectives is to promote research that investigates methods to decrease the required concentrations of drugs such as TMZ for efficacy in vivo. Therefore, it is important to analyze the stability of cyclotides in human serum. The trypsin inhibitor cyclotide, MCoTI-II, has been extracted from the seeds of Momordica cochinchinensis Spreng. [Cucurbitaceae]. […] Huang and colleagues repeated these experiments with MCoTI-II and an ...

Data set [2] relates to U-87 MG human glioblastoma cells. The data set is described as follows: cells. The following applies: read-out: IC50 (μM) ± S.D.; U-87 MG, MTT, 72 h, 6000 cells/well, cyclotides 0.1-10 μM, TMZ 0.5-5000 μM, best fit nonlinear regression, triplicate wells, n = 3. On the procedure: SH-SY5Y human neuroblastoma cells (population doubling (PD) 20−24), T-98G, and U-87 MG human glioblastoma cells were removed from cryogenic storage, thawed rapidly in a water bath (37 °C) and reconstituted in 75 cm^2 flasks. For SH-SY5Y, the following media were used: Dulbecco’s modified Eagle’s medium/Nutrient F12 Ham (Sigma-Aldrich, Cat. No. D8437) containing 10% heat-inactivated fetal bovine serum, 4 mM L-glutamine, 100 U/mL penicillin, and 100 μg/mL streptomycin. For U-87 MG and T-98G Eagle’s minimal essential medium (ATCC: The Global Bioresource Center, Cat. No. ATCC 30-2003), containing 10% heat-inactivated fetal bovine serum, 4 mM L-glutamine, 100 U/mL penicillin, and 100 μg/mL streptomycin were used.
Cells were incubated at 37 °C in a humidified atmosphere of 5% CO2 and 95% air until recovered and ready for passaging (approximately 4 days). At between 80% and 90% confluence, the cells were trypsinized with warm (37 °C) sterile 0.5% Trypsin-EDTA (Thermo Fisher, Cat. No. 15400054) and passaged into 175 cm^2 flasks, where they were left to multiply until they reached 80−90% confluence. To plate cells: cultures were trypsinized, resuspended in 20 mL sterile PBS, counted using a cell counter (Olympus cell counter model R1), and plated in 96-well plates at an optimal density of 6000 cells/well in the designated culture media. The cells were left to adhere overnight before treatment the following day, when the culture medium was removed and replaced with the treatment medium. All incubations were conducted in triplicate wells and repeated at least three times (n = 3).
To calculate TMZ IC50 values in each cell line, TMZ was dissolved in DMSO at a stock concentration of 103 mM, which was then diluted into culture medium on the day of use, with the DMSO final concentration always less than 0.1%. The following concentrations of TMZ were used in the experiments: 0.5, 5, 50, 500, 2500, 5000 μM. The media were sterilized for each treatment media with a 0.22 μm filter before they were added to cell cultures. To determine the IC50 values for each cyclotide in each cell type, cyclotides were dissolved into 10% DMSO and then dilutions used to screen cyclotides with a final DMSO concentration of less than 0.1% The following concentrations of cyclotides were used: 0.1, 1, 5, 10 μM. For co-exposure experiments, a simultaneous exposure of cyclotide and TMZ at each respective dose was added to cell cultures (100 μL final volume per well).
In accordance with the methods developed by Mosmann and colleagues, the MTT assay was conducted using the Roche cell proliferation kit (Cat. No. 11465007001). Briefly, cells that are active can cleave MTT. The MTT is originally a yellow tetrazolium salt that undergoes a colorimetric change to purple formazan crystals, and the change in absorbance can be measured as an indicator of cell viability/proliferation. For these experiments, cells were plated into 96-well flat-bottom plates, as described in the cell culture above. […] To align with our previous work, experiments were conducted with a 72 h time frame for cytotoxicity evaluation.
After a 72 h incubation period, plates were removed from the incubator and 10 µL of MTT was added to each well. The plates were returned to the incubator for an additional 4 h, after which 100 µL of a solubilization solution was added to each well. The plates were returned to incubation overnight, and the next day absorbances were read at 570 nm on a Molecular Devices FlexStation 3 using SoftMax Pro Microplate Data Acquisition and Analysis Software (version 7.0.2).

Data set [3] in a line: Human serum stability assay (UPLC-MS). The note with it: data points of 3 h, 8 h and 24 h; human serum from male AB plasma, 300 µM stock diluted 10 times, 37 °C, UPLC-MS peak area vs control, triplicate. As to the method: Established protocols were used to analyze peptide stability in human serum isolated from male AB plasma (Sigma-Aldrich). Briefly, thawed plasma was centrifuged for 10 min at 15,000× g to concentrate lipids. The supernatant was carefully removed with a Pasteur pipette and incubated for 15 min at 37 °C, 5% CO2. […] Controls were synthetic Kalata B1 or TMZ in PBS that were incubated in parallel with human serum test compounds. Serum proteins were denatured with urea (final concentration of 3M) at 4 °C for 10 min., at each time point. Afterwards, trichloroacetic acid (7% final v/v) was added for 10 min to precipitate the proteins. Each sample was centrifuged for 10 min at 15,000× g; the supernatant was removed an evaluated in triplicate using UPLC-MS.
We conducted peptide stability assays in human serum isolated from male AB plasma and then analyzed with UPLC-MS. Synthetic Kalata B1 and TMZ were incubated with human serum and the portion of the peptide remaining was quantified by calculating the area of the respective elution peak in UPLC-MS, compared to the control.
Percentage of Kalata B1 and TMZ remaining upon incubation with human serum. The portion of serum-treated peptide remaining was determined by calculating the area of the respective elution peak in UPLC-MS and comparing it with the control without incubation. Data points are means ± SEM.

Data set [4] deals with glioblastoma cells. The note with it: cited from earlier work.
The test system of data set [5] is U-87 MG cells. The following applies: cited from earlier work.

For “MCoTI-II: trypsin inhibitor cyclotide extracted from the seeds of Momordica cochinchinensis; three-disulfide peptide (cyclo(SGSDGGVCPKILKKCRRDSDCPGACICRGNGYCG); disulfide (positions not given here); also: three disulfides, pairing not given here; UniProt P82409 1-34, looked up)”, the “Peptide remaining in human serum” value in data set [1] (24 h) is 100%. Besides, the “Time for which the peptide remained stable in human serum” value in data set [1] is “at least 24 h”.

As usually defined, the IC50 is the concentration needed to halve the response being measured. Turning to `CC(C)C[C@@H]1NC(=O)CNC(=O)[C@H](CC(N)=O)NC(=O)[C@H](CCCNC(=N)N)NC(=O)[C@H](Cc2ccccc2)NC(=O)[C@@H]2CSSC[C@@H]3NC(=O)[C@H]([C@@H](C)O)NC(=O)CNC(=O)CNC(=O)[C@H](C(C)C)NC(=O)[C@@H]4CSSC[C@H](NC(=O)[C@H](CO)NC(=O)[C@H](CSSC[C@H](NC(=O)[C@H](C(C)C)NC(=O)[C@@H]5CCCN5C1=O)C(=O)NCC(=O)N[C@@H](CCC(=O)O)C(=O)N[C@@H]([C@@H](C)O)C(=O)N4)NC(=O)CNC(=O)[C@@H]1CCCN1C(=O)[C@H]([C@@H](C)O)NC(=O)[C@H](CC(N)=O)NC3=O)C(=O)N[C@@H](CO)C(=O)N[C@@H](Cc1c[nH]c3ccccc13)C(=O)N1CCC[C@H]1C(=O)N[C@@H](C(C)C)C(=O)N2` [Vitri E], in data set [2], the IC50 is 21.1 ± 2.9 µM.

Take `CC[C@H](C)[C@@H]1NC(=O)[C@@H]2CSSC[C@@H]3NC(=O)[C@H](C(C)C)NC(=O)[C@H](CCCCN)NC(=O)[C@H](CO)NC(=O)[C@H](CCCCN)NC(=O)[C@@H]4CSSC[C@H](NC(=O)[C@H](CO)NC(=O)[C@H](CCC(=O)O)NC(=O)CNC(=O)[C@H](CSSC[C@H](NC(=O)CNC(=O)[C@H](C(C)C)NC(=O)[C@H](C(C)C)NC(=O)[C@H](CO)NC(=O)[C@H](CO)NC1=O)C(=O)N[C@@H](CO)C(=O)N4)NC(=O)[C@@H]1CCCN1C(=O)[C@H](CC(C)C)NC(=O)[C@H]([C@@H](C)O)NC(=O)CNC(=O)[C@H](CC(=O)O)NC(=O)[C@H](CCCCN)NC(=O)[C@H](Cc1ccc(O)cc1)NC3=O)C(=O)N[C@@H](C(C)C)C(=O)N[C@@H](Cc1c[nH]c3ccccc13)C(=O)N[C@@H]([C@@H](C)CC)C(=O)N1CCC[C@H]1C(=O)N2` [CyO19, Cycloviolacin O19] (cyclo(CGESCVWIPCISSVVGCSCKSKVCYKDGTLP); disulfide 1-17, 5-19, 10-24): the IC50 in data set [2] was found to be 2.4 ± 0.07 µM.

Regarding `CC[C@H](C)[C@@H]1NC(=O)[C@H](C)NC(=O)[C@H](CO)NC(=O)[C@H]([C@@H](C)O)NC(=O)[C@H](CC(C)C)NC(=O)[C@@H]2CSSC[C@@H]3NC(=O)[C@H](C(C)C)NC(=O)[C@H](CCCCN)NC(=O)[C@H](CO)NC(=O)[C@H](CCCCN)NC(=O)[C@@H]4CSSC[C@H](NC(=O)[C@H](CO)NC(=O)[C@H](CCC(=O)O)NC(=O)CNC(=O)[C@H](CSSC[C@H](NC(=O)CNC1=O)C(=O)N[C@@H](CO)C(=O)N4)NC(=O)[C@@H]1CCCN1C(=O)[C@H]([C@@H](C)CC)NC(=O)CNC(=O)[C@H](CC(N)=O)NC(=O)[C@H](CCCNC(=N)N)NC(=O)[C@H](Cc1ccc(O)cc1)NC3=O)C(=O)N[C@@H](C(C)C)C(=O)N[C@@H](Cc1c[nH]c3ccccc13)C(=O)N[C@@H]([C@@H](C)CC)C(=O)N1CCC[C@H]1C(=O)N2` [CyO3, Cycloviolacin O3] (cyclo(AIGCSCKSKVCYRNGIPCGESCVWIPCLTS); disulfide 4-18, 6-22, 11-27), the IC50 in data set [2] was 2.6 ± 0.05 µM.

For `CC(C)C[C@@H]1NC(=O)CNC(=O)[C@H](CC(N)=O)NC(=O)[C@H](CCCNC(=N)N)NC(=O)[C@H]([C@@H](C)O)NC(=O)[C@@H]2CSSC[C@@H]3NC(=O)[C@H]([C@@H](C)O)NC(=O)CNC(=O)CNC(=O)[C@H](C(C)C)NC(=O)[C@@H]4CSSC[C@H](NC(=O)[C@H]([C@@H](C)O)NC(=O)[C@H](CSSC[C@H](NC(=O)[C@H](C(C)C)NC(=O)[C@@H]5CCCN5C1=O)C(=O)NCC(=O)N[C@@H](CCC(=O)O)C(=O)N[C@@H]([C@@H](C)O)C(=O)N4)NC(=O)CNC(=O)[C@@H]1CCCN1C(=O)[C@H]([C@@H](C)O)NC(=O)[C@H](CC(N)=O)NC3=O)C(=O)N[C@@H](CO)C(=O)N[C@@H](Cc1c[nH]c3ccccc13)C(=O)N1CCC[C@H]1C(=O)N[C@@H](C(C)C)C(=O)N2` [Kalata B1], in data set [3], the “Stability in human serum (in words)” value is reported as “remained stable”.

As to Varv peptide A, the IC50 in data set [4] was 2910 nM. Further, the “Fold less TMZ required for significant cell death on co-exposure with the cyclotide” value in data set [5] was 2 fold.
